{"source": "patent US8207206B2", "about": "“(S,R)-3-phenyl-4,5 dihydro-5-isoxazole acetic acid-nitric oxide and use thereof as anti-cancer and antiviral agent” (OncoNOx APS, priority 2007, dated 2012)", "key": {"B16 mouse melanoma cells": {"tested_on": "B16 mouse melanoma cells", "experiment": "MTT / CV cell viability test", "assay_type": "cell-based", "details": "24 h", "experimental": "(§1) Rat glioma cell line C6 was a kind gift from Dr. Pedro Tranque (Universidad de Castilla-La Mancha, Albacete, Spain), murine melanoma B16 cell line was a kind gift from Dr. Sinisa Radulovic (Institute for Oncology and Radiology of Serbia, Belgrade, Serbia) while mouse fibrosarcoma L929 was obtained from the European Collection of Animal Cell Cultures (Salisbury, UK). Cells were grown in HEPES-buffered RPM, 1640 medium supplemented with 5% FCS, 2 mM glutamine, 0.01% sodium pyruvate, 5×10^−5 M 2-mercaptoethanol and antibiotics (culture medium) at 37° C. in a humidified atmosphere with 5% CO2. After conventional trypsinization the cells were seeded at a concentration of 10^4 cells/well in a 96-well plate, of 2×10^5 cells/well in a 6-well plate or at 3×10^4 cells/well in a 4-well chamber slide, cultivated overnight, and then exposed to the test compound.\n(§2) The cells were seeded in flat-bottom 96-well plates (10^4 cells/well) in a final volume of 200 μl of culture medium, incubated overnight, then treated with different concentrations of the test compound. After 24 h incubation, cell viability was assessed using 3-4,5-dimethylthiazol-2-yl)-2,5-diphenyltetrazolium bromide (MTT) test, based on the mitochondrial-dependent reduction of MTT to formazan, or by crystal violet (CV) staining of adherent cells, as previously described (Mijatovic et al CMLS 2004). The results are presented as % of control values obtained in untreated cultures. The rate of cell proliferation was also determined using flow cytometric analysis of cells labeled with CFSE (Kang 2005). The cells were detached, added with 1.5 μM CFSE and allowed to stand for 15 min at 37° C., then washed twice and seeded in 6-well plates at 2×10^5. The cells were treated with the compound for 24 and 48 h, trypsinized and washed twice. Finally, the cells were resuspended in PBS and analyzed by flow cytometry. Green fluorescence emission from cells illuminated with excitation light of 488 nm was measured with a FACS Calibur (BD, Heidelberg, Germany) and analyzed using the CellQuest software."}, "C6 rat astrocytoma cells": {"tested_on": "C6 rat astrocytoma cells", "experiment": "MTT / CV cell viability test", "assay_type": "cell-based", "details": "24 h", "experimental": "as §1, §2"}, "[1]": {"tested_on": "L929 mouse fibrosarcoma cells", "experiment": "MTT / CV cell viability test", "assay_type": "cell-based", "details": "24 h", "experimental": "as §1, §2"}, "C6 cells [2]": {"tested_on": "C6 cells", "experiment": "CFSE staining, tumor cell proliferation rate (flow cytometry)", "assay_type": "cell-based, rat", "details": "C6, GIT27-NO 25 μg/ml, after 48 h; control 8.37%", "experimental": "as §2"}, "B16 cells": {"tested_on": "B16 cells", "experiment": "CFSE staining, tumor cell proliferation rate (flow cytometry)", "assay_type": "cell-based, mouse", "details": "B16, GIT27-NO 25 μg/ml, after 48 h; control 2.00%", "experimental": "as §2"}, "L929 cells": {"tested_on": "L929 cells", "experiment": "CFSE staining, tumor cell proliferation rate (flow cytometry)", "assay_type": "cell-based, mouse", "details": "L929, GIT27-NO 25 μg/ml, after 48 h; control 7.26%", "experimental": "as §2"}, "C6 cells [3]": {"tested_on": "C6 cells", "experiment": "LDH release assay (cell death)", "assay_type": "cell-based, rat", "details": "C6, dose-dependent (24 h) and time-dependent (25 μg/ml), significant after 18 h", "experimental": "(§3) As a marker of necrotic cell death, the release of intracellular enzyme LDH, which mediates the conversion 2,4-dinitrophenylhydrazine into visible hydrazone precipitate in the presence of pyruvate, was measured. The cells were seeded in flat-bottom 96-well plates as indicated above and the assay was performed after 24 h incubation, as previously described (Decker et al). The percentage of dead cells was determined using the following formula: [(E−C)/(T−C)]×100, wherein E is the experimental absorbance of treated cultures measured at 492 nm, C is the absorbance of supernatants of control untreated cells, and T is the absorbance corresponding to the maximal (100%) LDH release of Triton-lysed cells. Cell cycle analysis and apoptosis detection were carried out exactly as described in the literature (Mijatovic CMLS 2005). Acidic vesicular organelles, which characterise autophagy, are stained by vital dye acridin orange. The intensity of red fluorescence is proportional to the acidity and volume of the organelles, while the cytoplasm and nucleolus emits bright green and dim red (Kanzawa 2004). […] Green (510-530 nm) and red (>650 nm) fluorescence emission from 10^4 cells illuminated with blue (488 nm) excitation light was measured with a FACS Calibur and analyzed using CellQuest software."}, "C6 cells [4]": {"tested_on": "C6 cells", "experiment": "Cell cycle analysis and apoptosis detection (PI staining, flow cytometry)", "assay_type": "cell-based, rat", "details": "C6, 25 μg/ml, 24 h", "experimental": "as §3"}, "C6 cells [5]": {"tested_on": "C6 cells", "experiment": "ROS measurement by DHR fluorescence (flow cytometry)", "assay_type": "cell-based, rat", "details": "C6, 25 μg/ml, 24 h", "experimental": "The cells grown in the 6-well plate were stained with 1 μM dihydrorhodamine 123 (DHR) 20 min before the treatment with the test compound. At the end of the cultivation period the cells were detached, washed and resuspended in PBS. Analysis of ROS release was performed with a FACSCalibur and analyzed using CellQuest Pro software (Kaludjerovic 2005)."}}, "data": [{"smiles": "N#Cc1c(COC(=O)CC2CC(c3ccccc3)=NO2)no[n+]1[O-]", "note": "(racemic) [GIT27-NO, (S,R)-3-phenyl-4,5 dihydro-5-isoxazole acetic acid-nitric oxide]", "values": [{"measurement": "viability (MTT) of GIT27-NO treated cells in the presence of autophagic inhibitors", "setting": "B16 mouse melanoma cells; B16, GIT27-NO 25 μg/ml, 3-MA 1 mg/ml or Baf 0.5 μM", "result": "recovered"}, {"measurement": "survival (MTT) of GIT27-NO treated cells with specific MAP kinase inhibitors", "setting": "B16 mouse melanoma cells; B16, GIT27-NO 25 μg/ml, JNK inhibitor SP600125 0.75 μM", "result": "significantly improved the survival"}, {"measurement": "viability (MTT) of GIT27-NO treated cells with ROS scavenger NAC", "setting": "B16 mouse melanoma cells; B16, GIT27-NO 25 μg/ml, NAC 2.5 μM", "result": "restored the viability"}, {"measurement": "viability (MTT) of GIT27-NO treated cells with PTK inhibitor tyrphostin", "setting": "B16 mouse melanoma cells; B16, GIT27-NO 25 μg/ml, tyrphostin 5 μM", "result": "almost completely restored the viability"}, {"measurement": "cell viability (MTT, mitochondrial respiration)", "setting": "B16 mouse melanoma cells; B16 cells, different concentrations, cell number also reduced by CV", "result": "dose-dependent reduction of mitochondrial respiration"}, {"measurement": "viability (MTT) of GIT27-NO treated cells in the presence of autophagic inhibitors", "setting": "C6 rat astrocytoma cells; C6, GIT27-NO 25 μg/ml, 3-MA 1 mg/ml or Baf 0.5 μM", "result": "recovered"}, {"measurement": "survival (MTT) of GIT27-NO treated cells with specific MAP kinase inhibitors", "setting": "C6 rat astrocytoma cells; C6, GIT27-NO 25 μg/ml, ERK inhibitor PD98059 50 μM, JNK inhibitor SP600125 0.75 μM", "result": "significantly improved the survival"}, {"measurement": "viability (MTT) of GIT27-NO treated cells with ROS scavenger NAC", "setting": "C6 rat astrocytoma cells; C6, GIT27-NO 25 μg/ml, NAC 2.5 μM", "result": "restored the viability"}, {"measurement": "viability (MTT) of GIT27-NO treated cells with PTK inhibitor tyrphostin", "setting": "C6 rat astrocytoma cells; C6, GIT27-NO 25 μg/ml, tyrphostin 5 μM", "result": "almost completely restored the viability"}, {"measurement": "viability (MTT) of GIT27-NO treated cells in parallel with NO-scavenger hemoglobin", "setting": "C6 rat astrocytoma cells; C6, hemoglobin 12.5 μM, GIT27-NO 25 mg/ml (as printed in b12)", "result": "almost completely restored"}, {"measurement": "cell viability (MTT, mitochondrial respiration)", "setting": "C6 rat astrocytoma cells; C6 cells, different concentrations, cell number also reduced by CV", "result": "dose-dependent reduction of mitochondrial respiration"}, {"measurement": "survival (MTT) of GIT27-NO treated cells with specific MAP kinase inhibitors", "setting": "[1]; L929, GIT27-NO 25 μg/ml, ERK inhibitor PD98059 50 μM, p38 inhibitor SB202190 20 μM", "result": "significantly improved the survival"}, {"measurement": "viability (MTT) of GIT27-NO treated cells with ROS scavenger NAC", "setting": "[1]; L929, GIT27-NO 25 μg/ml, NAC 2.5 μM", "result": "restored the viability"}, {"measurement": "viability (MTT) of GIT27-NO treated cells with PTK inhibitor tyrphostin", "setting": "[1]; L929, GIT27-NO 25 μg/ml, tyrphostin 5 μM", "result": "almost completely restored the viability"}, {"measurement": "cell viability (MTT, mitochondrial respiration)", "setting": "[1]; L929 cells, different concentrations, cell number also reduced by CV", "result": "dose-dependent reduction of mitochondrial respiration"}, {"measurement": "CFSE R1 = parent population", "setting": "C6 cells [2]", "result": 42.53, "unit": "%"}, {"measurement": "CFSE R1 = parent population", "setting": "B16 cells", "result": 6.90, "unit": "%"}, {"measurement": "CFSE R1 = parent population", "setting": "L929 cells", "result": 13.23, "unit": "%"}, {"measurement": "LDH release", "setting": "C6 cells [3]", "result": "induced LDH release"}, {"measurement": "cell cycle effect", "setting": "C6 cells [4]", "result": "cell cycle arrest in G0/G1 phase"}, {"measurement": "percentage of cells in subG compartment (hypodiploid cells)", "setting": "C6 cells [4]", "result": "< 10", "unit": "%"}, {"measurement": "intracellular production of ROS (DHR fluorescence)", "setting": "C6 cells [5]", "result": "markedly increased"}]}]}
